# Calls of active or inactive are those of the source.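 How the source made its calls: active means PP5 phosphatase activity cut by at least half at the top 100 µM dose; inactive means less than half inhibition at 100 µM.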
# Molecular target: Serine/threonine-protein phosphatase 5 (Homo sapiens) (UniProt P53041)
# Experiment: PP5 phosphatase inhibitor potency, late-stage follow-up, biochemical, OMFP substrate, fluorescence, round 5, 1 µM low dose (AID 624448)
# Conditions: purified PP5c, OMFP dephosphorylation
# Chain of Serine/threonine-protein phosphatase 5 (Homo sapiens) (P53041 whole entry, looked up): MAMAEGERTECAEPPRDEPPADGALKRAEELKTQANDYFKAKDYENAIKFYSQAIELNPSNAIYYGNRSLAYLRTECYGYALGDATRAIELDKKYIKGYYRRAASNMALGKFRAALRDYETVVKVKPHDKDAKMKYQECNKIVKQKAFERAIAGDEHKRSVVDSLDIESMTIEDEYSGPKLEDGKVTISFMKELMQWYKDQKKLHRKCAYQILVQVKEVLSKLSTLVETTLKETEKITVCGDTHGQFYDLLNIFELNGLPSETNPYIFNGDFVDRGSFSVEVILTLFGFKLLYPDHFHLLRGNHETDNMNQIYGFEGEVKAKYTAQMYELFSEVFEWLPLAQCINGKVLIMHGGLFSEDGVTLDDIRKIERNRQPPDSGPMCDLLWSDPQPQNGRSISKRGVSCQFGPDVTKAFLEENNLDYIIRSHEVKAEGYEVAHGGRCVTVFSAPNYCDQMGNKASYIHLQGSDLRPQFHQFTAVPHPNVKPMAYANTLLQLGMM
row,SMILES,IC50
1,O=C(O)c1ncn[nH]1,> 100 µM (inactive)
2,O=C(O)c1cn(Cc2ccccc2)nn1,> 100 µM (inactive)
3,O=C(O)c1nnn(-c2ccccc2)c1-c1ccccc1,> 100 µM (inactive)
4,O=C(O)c1cn[nH]n1,> 100 µM (inactive)
5,O=C(O)c1cn[nH]c1-c1ccccc1,> 100 µM (inactive)
6,O=C(O)c1nn(Cc2ccccc2)nc1Cl,> 100 µM (inactive)
7,COC(=O)c1n[nH]nc1-c1ccccc1,> 100 µM (inactive)
8,Cc1n[nH]nc1C(=O)O,> 100 µM (inactive)

# From PubChem BioAssay AID624448 (The Scripps Research Institute Molecular Screening Center, 2012)
